According to patent publication US11702427B2 (priority 2018, dated 2023):
pEC50: −log10 of the molar value.

Test system: HBsAg
Assay: HBsAg assay: inhibition of HBsAg in HepG2.2.15 cells (CLIA immunoassay of supernatant)
Format: cell-based, hepatitis B virus (HBV)
Details: Hepatitis B virus, HepG2.2.15, 144 h, read-out: sAg EC50, HepG2.2.15 cells; supernatant collected at day 6 after exposure; HBsAg chemiluminescence immunoassay
Outline: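 HepG2.2.15 cells (30,000/well) exposed to serially diluted compound (0.5% DMSO) for 2–3 days, then re-dosed in fresh medium for 3–4 more days. On day 6, supernatant HBsAg quantified by chemiluminescence immunoassay; EC50 from dose-response curves. Viability measured separately by CellTiter-Glo.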

Row | SMILES | pEC50
1 | CCOc1nc2c(cc1OCCCOC)CC(C(C)C)c1c-2[nH]c(=O)c(C(=O)O)c1O (centres unmarked) [Example 39, 9-Ethoxy-4-hydroxy-5-isopropyl-8-(3-methoxypropoxy)-2-oxo-1,2,5,6-tetrahydro-1,10-phenanthroline-3-carboxylicacid] | 8.70
2 | COCCCOc1cc2c(nc1OCC(F)F)-c1[nH]c(=O)c(C(=O)O)c(O)c1C(C(C)C)C2 (centres unmarked) [Example 42, 9-(2,2-Difluoroethoxy)-4-hydroxy-5-isopropyl-8-(3-methoxypropoxy)-2-oxo-1,2,5,6-tetrahydro-10-phenanthroline-3-carboxylic acid] | 7.92
3 | COCCCOc1cc2c(nc1OC)-c1[nH]c(=O)c(C(=O)O)cc1C(C(C)C)C2 (centres unmarked) [Example 43, 5-Isopropyl-9-methoxy-8-(3-methoxypropoxy)-2-oxo-1,2,5,6-tetrahydro-1,10-phenanthroline-3-carboxylic acid] | 8.52
4 | COCCCOc1cc2c(nc1OC)-c1[nH]c(=O)c(C(=O)O)cc1C(C(C)(C)C)C2 (centres unmarked) [Example 46, 5-(tert-Butyl)-9-methoxy-8-(3-methoxypropoxy)-2-oxo-1,2,5,6-tetrahydro-1,10-phenanthroline-3-carboxylicacid] | 9.00
5 | COCCCOc1cc2c(nc1C1CC1)-c1[nH]c(=O)c(C(=O)O)c(O)c1C(C(C)C)C2 (centres unmarked) [Example 49, 9-Cyclopropyl-4-hydroxy-5-isopropyl-8-(3-methoxypropoxy)-2-oxo-1,2,5,6-tetrahydro-1,10-phenanthroline-3-carboxylicacid] | 9.00
6 | CCCc1nc2c(cc1OCCCOC)CC(C(C)C)c1c-2[nH]c(=O)c(C(=O)O)c1O (centres unmarked) [Example 50, 4-Hydroxy-5-isopropyl-8-(3-methoxypropoxy)-2-oxo-9-propyl-1,2,5,6-tetrahydro-1,10-phenanthroline-3-carboxylic acid] | 8.70
7 | COCCCOc1cc2c(nc1NCCOC)-c1[nH]c(=O)c(C(=O)O)c(O)c1C(C(C)C)C2 (centres unmarked) [Example 51, 4-Hydroxy-5-isopropyl-9-((2-methoxyethyl)amino)-8-(3-methoxypropoxy)-2-oxo-1,2,5,6-tetrahydro-1,10-phenanthroline-3-carboxylicacid] | 5.00
8 | COCCCOc1cc2c(nc1NCCOC)-c1[nH]c(=O)c(C(=O)NCCOC)c(O)c1C(C(C)C)C2 (centres unmarked) [Example 52, 4-Hydroxy-5-isopropyl-N-(2-methoxyethyl)-9-((2-methoxyethyl)amino)-8-(3-methoxypropoxy)-2-oxo-1,2,5,6-tetrahydro-1,10-phenanthroline-3-carboxamide] | 4.89
9 | CNc1nc2c(cc1OCCCOC)CC(C(C)C)c1c-2[nH]c(=O)c(C(=O)O)c1O (centres unmarked) [Example 53, 4-Hydroxy-5-isopropyl-8-(3-methoxypropoxy)-9-(methylamino)-2-oxo-1,2,5,6-tetrahydro-1,10-phenanthroline-3-carboxylic acid] | 7.82
10 | COCCCOc1cc2c(nc1N(C)C)-c1[nH]c(=O)c(C(=O)O)c(O)c1C(C(C)C)C2 (centres unmarked) [Example 54, 9-(Dimethylamino)-4-hydroxy-5-isopropyl-8-(3-methoxypropoxy)-2-oxo-1,2,5,6-tetrahydro-1,10-phenanthroline-3-carboxylicacid] | 8.00
11 | CNc1nc2c(cc1OCCCOC)CC(C(C)C)c1cc(C(=O)O)c(=O)[nH]c1-2 (centres unmarked) [Example 55, 5-Isopropyl-8-(3-methoxypropoxy)-9-(methylamino)-2-oxo-1,2,5,6-tetrahydro-1,10-phenanthroline-3-carboxylicacid] | 8.70
12 | COCCCOc1cc2c(nc1C1CC1)-c1[nH]c(=O)c(C(=O)O)cc1C(C(C)C)C2 (centres unmarked) [Example 56, 9-Cyclopropyl-5-isopropyl-8-(3-methoxypropoxy)-2-oxo-1,2,5,6-tetrahydro-1,10-phenanthroline-3-carboxylicacid] | 9.00
13 | COCCCOc1cc2c(cc1OC)-c1[nH]c(=O)c(-c3ncn[nH]3)c(O)c1C(C(C)C)C2 (centres unmarked) [Example 57, 4-Hydroxy-5-isopropyl-9-methoxy-8-(3-methoxypropoxy)-3-(1H-1,2,4-triazol-5-yl)-5,6-dihydrobenzo[h]quinolin-2(1H)-one] | 7.96
14 | COCCCOc1cc2c(cc1OC)-c1[nH]c(=O)c(C(N)=O)c(O)c1C(C(C)C)C2 (centres unmarked) [Example 58, 4-Hydroxy-5-isopropyl-9-methoxy-8-(3-methoxypropoxy)-2-oxo-1,2,5,6-tetrahydrobenzo[h]quinoline-3-carboxamide] | 7.70
15 | COCCCOc1cc2c(nc1OC)-c1[nH]c(=O)c(C(N)=O)c(O)c1C(C(C)(C)C)C2 (centres unmarked) [Example 59, 5-(tert-Butyl)-4-hydroxy-9-methoxy-8-(3-methoxypropoxy)-2-oxo-1,2,5,6-tetrahydro-1,10-phenanthroline-3-carboxamide] | 8.52
16 | COCCCOc1cc2c(nc1OC)-c1[nH]c(=O)c(C(N)=O)cc1C(C(C)(C)C)C2 (centres unmarked) [Example 62, 5-(tert-Butyl)-9-methoxy-8-(3-methoxypropoxy)-2-oxo-1,2,5,6-tetrahydro-1,10-phenanthroline-3-carboxamide] | 7.60

Row | SMILES | pEC50
17 | CNC(=O)c1c(O)c2c([nH]c1=O)-c1nc(OC)c(OCCCOC)cc1CC2C(C)(C)C (centres unmarked) [Example 63, 5-(tert-Butyl)-4-hydroxy-9-methoxy-8-(3-methoxypropoxy)-N-methyl-2-oxo-1,2,5,6-tetrahydro-1,10-phenanthroline-3-carboxamide] | 7.74
18 | COCCCOc1cc2c(nc1OC)-c1[nH]c(=O)c(C(=O)N(C)C)c(O)c1C(C(C)(C)C)C2 (centres unmarked) [Example 64] | 5.70
19 | COCCCOc1cc2c(nc1OC)-c1[nH]c(=O)c(C(=O)NO)c(O)c1C(C(C)(C)C)C2 (centres unmarked) [Example 65, 5-(tert-Butyl)-N,4-dihydroxy-9-methoxy-8-(3-methoxypropoxy)-2-oxo-1,2,5,6-tetrahydro-1,10-phenanthroline-3-carboxamide] | 8.70
20 | COCCCOc1cc2c(cc1OC)-c1[nH]c(=O)c(C(=O)NO)c(O)c1C(C(C)C)C2 (centres unmarked) [Example 66, N,4-Dihydroxy-5-isopropyl-9-methoxy-8-(3-methoxypropoxy)-2-oxo-1,2,5,6-tetrahydrobenzo[h]quinoline-3-carboxamide] | 7.39
21 | COCCCOc1cc2c(nc1OC)-c1[nH]c(=O)c(C(=O)NO)cc1C(C(C)(C)C)C2 (centres unmarked) [Example 67, 5-(tert-Butyl)-N-hydroxy-9-methoxy-8-(3-methoxypropoxy)-2-oxo-1,2,5,6-tetrahydro-1,10-phenanthroline-3-carboxamide] | 8.30
22 | COCCCOc1cc2c(nc1OC)-c1nc(Cl)c(C(=O)O)c(Cl)c1C(C(C)(C)C)C2 (centres unmarked) [Example 68, 5-(tert-Butyl)-2,4-dichloro-9-methoxy-8-(3-methoxypropoxy)-5,6-dihydro-1,10-phenanthroline-3-carboxylicacid] | 5.00
23 | COCCCOc1cc2c(cc1Cl)-c1[nH]c(=O)c(C(=O)O)cc1[C@H](C(C)C)CO2 [Example 69, (S)-10-Chloro-5-isopropyl-9-(3-methoxypropoxy)-2-oxo-1,2,5,6-tetrahydrobenzo[2,3]oxepino[4,5-b]pyridine-3-carboxylicacid] | 6.70
24 | COCCCOc1cc2c(cc1Cl)-c1[nH]c(=O)c(C(=O)O)c(O)c1[C@H](C(C)C)CO2 [Example 70, (S)-10-Chloro-4-hydroxy-5-isopropyl-9-(3-methoxypropoxy)-2-oxo-1,2,5,6-tetrahydrobenzo[2,3]oxepino[4,5-b]pyridine-3-carboxylic acid] | 6.92
25 | COCCCOc1cc2c(cc1COC)-c1[nH]c(=O)c(C(=O)O)c(O)c1[C@H](C(C)C)CO2 [Example 71, (S)-4-Hydroxy-5-isopropyl-10-(methoxymethyl)-9-(3-methoxypropoxy)-2-oxo-1,2,5,6-tetrahydrobenzo[2,3]oxepino[4,5-b]pyridine-3-carboxylicacid] | 6.55
26 | COCCCOc1cc2c(cc1CCOC)-c1[nH]c(=O)c(C(=O)O)c(O)c1[C@H](C(C)C)CO2 [Example 72, (S)-4-Hydroxy-5-isopropyl-10-(2-methoxyethyl)-9-(3-methoxypropoxy)-2-oxo-1,2,5,6-tetrahydrobenzo[2,3]oxepino[4,5-b]pyridine-3-carboxylic acid] | 6.22
27 | COCCCOc1cc2c(cc1OC)-c1[nH]c(=O)c(C(=O)O)cc1C1(CCCCC1)C2 [Example 73, 9-Methoxy-8-(3-methoxypropoxy)-2-oxo-2,6-dihydro-1H-spiro[benzo[h]quinoline-5,1′-cyclohexane]-3-carboxylic acid] | 6.96
28 | COCCCOc1cc2c(nc1Cl)-c1[nH]c(=O)c(C(=O)O)c(O)c1C(C(C)C)CO2 (centres unmarked) [Example 74, 2-Chloro-8-hydroxy-7-isopropyl-3-(3-methoxypropoxy)-10-oxo-6,7,10,11-tetrahydrooxepino[3,2-b:4,5-b′]dipyridine-9-carboxylic acid] | 7.40
29 | COCCCOc1cc2c(nc1C1CCOCC1)-c1[nH]c(=O)c(C(=O)O)c(O)c1C(C(C)C)CO2 (centres unmarked) [Example 79, 8-Hydroxy-7-isopropyl-3-(3-methoxypropoxy)-10-oxo-2-(tetrahydro-2H-pyran-4-yl)-6,7,10,11-tetrahydrooxepino[3,2-b:4,5-b′]dipyridine-9-carboxylic acid] | 5.30
30 | COCCCOc1cc2c(nc1CCOC)-c1[nH]c(=O)c(C(=O)O)c(O)c1C(C(C)C)CO2 (centres unmarked) [Example 84, 8-Hydroxy-7-isopropyl-2-(2-methoxyethyl)-3-(3-methoxypropoxy)-10-oxo-6,7,10,11-tetrahydrooxepino[3,2-b:4,5-b′]dipyridine-9-carboxylic acid] | 5.92
31 | COCCCOc1cc2c(cc1OC)-c1[nH]c(=O)c(C(=O)O)c(OC)c1C(C(C)C)C2 (centres unmarked) [Example 87, 5-Isopropyl-4,9-dimethoxy-8-(3-methoxypropoxy)-2-oxo-1,2,5,6-tetrahydrobenzo[h]quinoline-3-carboxylicacid] | 7.07
32 | COCCCOc1cc2c(cc1OC)-c1[nH]c(=O)c(C(=O)O)c(OCCOC)c1C(C(C)C)C2 (centres unmarked) [Example 88, 5-Isopropyl-9-methoxy-4-(2-methoxyethoxy)-8-(3-methoxypropoxy)-2-oxo-1,2,5,6-tetrahydrobenzo[h]quinoline-3-carboxylic acid] | 5.33
